Test results as given in publication PMC6394990, “Detailed characterization of the solution kinetics and thermodynamics of biotin, biocytin and HABA binding to avidin and streptavidin” (PLoS ONE, 2019).
Where two headings read alike, the source gives them in different places.

Target: T1, avidin (AV) (Gallus gallus, UniProt P02701)
T1 construct: purchased Calbiochem (La Jolla, CA)
Experiment: Stopped-flow association kinetics of dye-labeled biotin probes binding to avidin (F(t), rF(t); Arrhenius plots/global fitting)
Set-up: ln(k) / dS+ / dG+ / Eon for BFl / b of the line y = m1x+b1: unit not given here
Details: for k(average): k (full value)
Experimental: These reactions were carried out in a buffered solution of 10 mM Tris-HCl, 100 mM KCl, 2.5 mM MgCl2 and 1 mM CaCl2 at pH 8 and only AV-BcO reactions included pH 9 and 10. The concentrations, after mixing, were of 20 nM of dye-labeled B7 probe and 260 nM, 520 nM or 1040 nM of AV; and 200 nM, 300 nM, 400 nM or 800 nM of SAV at temperatures of 10, 15, 20 and 25°C. The deglycosylation of AV (for comparative association reactions) was carried out using the provided standard protocol with endoglycosidase H [47], both with and without incubation of a denaturant solution (2% SDS and 1M 2-mercaptoethanol).
The reactions were collected with the SF instrument, described previously. The fluorescence signal was collected through a 520 nm interference filter (Oriel Corp., Stratford, CT) with a detector time constant and SF dead time of 1 μs and 1 ms, respectively. The excitation light was provided by the Coherent Ar^+ ion laser (described above) at 488 nm with […] of incident power on the reaction cuvette. The laser source was followed by the photo-elastic modulator described above with the axis oriented 45^o with respect to the electric vector of the incident light and with the half-wave modulation (50 kHz) set for 488 nm excitation. The demodulation circuitry following the photomultiplier provided a DC(t) and a rectified AC(t) which were converted to digital data by a high-speed digitizer (PCI-5122) from National Instruments (Austin, TX) with 14-bit resolution and 100 MHz bandwidth, through channels 0 and 1. The data acquisition was controlled by LabVIEW (Vr 8) software at a collection rate of 6120 data points/second and stored in spreadsheets. The AC(t) and DC(t) data were baseline corrected before obtaining the signal ratio (Eq 4) as a function of time (ρt).
The constant AGain is the instrumental amplitude gain and was evaluated by solving ρ(t) using the known steady state anisotropy (rss) of the complexes which is equivalent to the r(t) at t = ∞; and H, obtained from the equivalent grating factor (G) for the filters and photo multiplier tubes in the SF. For the probes used in here G was 0.82 and H = (1-G)/(1+G) = 0.099. Knowing Again and H, the AC(t) and DC(t) signals can be solved for r(t) and F(t) (Eqs 4 and 5) and the normalized fluorescence, F¯(t) , and corrected fluorescence anisotropy, rF¯(t), were obtained when F¯(0) and rF¯(0) were scaled to 1 at t = 0.
The F¯(t) (Eq 6) is equivalent to (I||) + 2 (I⊥) and proportional to quantum yield (QYi), molar absorptivity (εi) and to the formation or disappearance of the emitting species Xi(t); and rF¯(t) including the steady state anisotropies (rss) of each fluorescent species (Eq 7).
The possible reaction models were discriminated by the squared residuals of the observed and calculated association traces of both fluorescence and anisotropy fluorescence signals, F¯(t) and rF¯(t) , respectively.

T1 sequence (P02701 25-152): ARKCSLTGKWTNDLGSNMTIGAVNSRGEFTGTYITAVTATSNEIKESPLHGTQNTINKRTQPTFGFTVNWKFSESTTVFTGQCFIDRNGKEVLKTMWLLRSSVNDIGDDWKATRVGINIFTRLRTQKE

`NC(CCCCNC(=O)CCCC[C@@H]1SC[C@@H]2NC(=O)N[C@@H]21)C(=O)NCCCCCNC(=O)c1ccc(-c2c3cc(F)c(=O)cc-3oc3cc(O)c(F)cc23)c(C(=O)O)c1` (some centres unmarked) [BcO, Oregon green 488 Biocytin] was tested, and the “kon fold slower than Green's 7 × 10^7 M^-1s^-1” value (25°C and pH 8 vs 25°C and pH 5) was 7.4 X, the “fold by which the SPR kon (ref 20) is slower than the kon of the probe” value (AV) was ~ 5 X and the “b of the line y = m1x+b1” value (AV 1, reacting with BcO) was 40.2925. The “slope, m of the line y = m1x+b1” value (AV 1, reacting with BcO, x = 1/Temp) was -7277.8, the kon by corrected fluorescence anisotropy rF(t) (AV-BcO, 10 °C, 260 nM) was 2.7e+06 ± 100000 M⁻¹ s⁻¹ and the kon (AV-BcO, 10 °C, 260 nM, read-out: kon by corrected fluorescence anisotropy rF(t)) was 2.65e+06 M⁻¹ s⁻¹. It also gave a kon (AV-BcO, 10 °C, 260 nM, read-out: kon by fluorescence change F(t)) of 2.4e+06 ± 100000 M⁻¹ s⁻¹, a kon (AV-BcO, 10 °C, 260 nM, read-out: kon by fluorescence change F(t), right block without spread) of 2.42e+06 M⁻¹ s⁻¹ and a kon by corrected fluorescence anisotropy rF(t) (AV-BcO, 10 °C, 520 nM) of 2.7e+06 ± 100000 M⁻¹ s⁻¹. For the same compound, the kon (AV-BcO, 10 °C, 520 nM, read-out: kon by corrected fluorescence anisotropy rF(t)) was 2.69e+06 M⁻¹ s⁻¹, the kon (AV-BcO, 10 °C, 520 nM, read-out: kon by fluorescence change F(t)) was 2.6e+06 ± 200000 M⁻¹ s⁻¹ and the kon (AV-BcO, 10 °C, 520 nM, read-out: kon by fluorescence change F(t), right block without spread) was 2.61e+06 M⁻¹ s⁻¹. The kon by corrected fluorescence anisotropy rF(t) (AV-BcO, 10 °C, 1040 nM) was 2.7e+06 ± 100000 M⁻¹ s⁻¹, the kon (AV-BcO, 10 °C, 1040 nM, read-out: kon by corrected fluorescence anisotropy rF(t)) was 2.72e+06 M⁻¹ s⁻¹ and the kon (AV-BcO, 10 °C, 1040 nM, read-out: kon by fluorescence change F(t)) was 2.5e+06 ± 200000 M⁻¹ s⁻¹. For the same compound, the kon (AV-BcO, 10 °C, 1040 nM, read-out: kon by fluorescence change F(t), right block without spread) was 2.52e+06 M⁻¹ s⁻¹, the kon (AV-BcO, 10 °C, average of F(t) and rF(t) at 260, 520, 1040 nM, read-out: kon, Average) was 2.6e+06 M⁻¹ s⁻¹ and the kon by corrected fluorescence anisotropy rF(t) (AV-BcO, 15 °C, 260 nM) was 4e+06 ± 100000 M⁻¹ s⁻¹. For the same compound, the kon (AV-BcO, 15 °C, 260 nM, read-out: kon by corrected fluorescence anisotropy rF(t)) was 4e+06 M⁻¹ s⁻¹, the kon (AV-BcO, 15 °C, 260 nM, read-out: kon by fluorescence change F(t)) was 4.1e+06 ± 100000 M⁻¹ s⁻¹ and the kon (AV-BcO, 15 °C, 260 nM, read-out: kon by fluorescence change F(t), right block without spread) was 4.1e+06 M⁻¹ s⁻¹. It also gave a kon by corrected fluorescence anisotropy rF(t) (AV-BcO, 15 °C, 520 nM) of 3.82e+06 ± 100000 M⁻¹ s⁻¹, a kon (AV-BcO, 15 °C, 520 nM, read-out: kon by corrected fluorescence anisotropy rF(t)) of 3.82e+06 M⁻¹ s⁻¹ and a kon (AV-BcO, 15 °C, 520 nM, read-out: kon by fluorescence change F(t)) of 3.95e+06 ± 100000 M⁻¹ s⁻¹. The kon (AV-BcO, 15 °C, 520 nM, read-out: kon by fluorescence change F(t), right block without spread) was 3.95e+06 M⁻¹ s⁻¹, the kon by corrected fluorescence anisotropy rF(t) (AV-BcO, 15 °C, 1040 nM) was 4e+06 ± 200000 M⁻¹ s⁻¹ and the kon (AV-BcO, 15 °C, 1040 nM, read-out: kon by corrected fluorescence anisotropy rF(t)) was 4e+06 M⁻¹ s⁻¹. It also gave a kon (AV-BcO, 15 °C, 1040 nM, read-out: kon by fluorescence change F(t)) of 3.9e+06 ± 200000 M⁻¹ s⁻¹, a kon (AV-BcO, 15 °C, 1040 nM, read-out: kon by fluorescence change F(t), right block without spread) of 3.9e+06 M⁻¹ s⁻¹ and a kon (AV-BcO, 15 °C, average of F(t) and rF(t) at 260, 520, 1040 nM, read-out: kon, Average) of 4e+06 M⁻¹ s⁻¹. For the same compound, the kon (AV-BcO, 20 °C, 260 nM, read-out: kon by corrected fluorescence anisotropy rF(t)) was 5.9e+06 M⁻¹ s⁻¹, the kon (AV-BcO, 20 °C, 260 nM, read-out: kon by fluorescence change F(t)) was 5.7e+06 ± 100000 M⁻¹ s⁻¹ and the kon (AV-BcO, 20 °C, 260 nM, read-out: kon by fluorescence change F(t), right block without spread) was 5.7e+06 M⁻¹ s⁻¹. For the same compound, the kon by corrected fluorescence anisotropy rF(t) (AV-BcO, 20 °C, 520 nM) was 5.8e+06 ± 100000 M⁻¹ s⁻¹, the kon (AV-BcO, 20 °C, 520 nM, read-out: kon by corrected fluorescence anisotropy rF(t)) was 5.8e+06 M⁻¹ s⁻¹ and the kon (AV-BcO, 20 °C, 520 nM, read-out: kon by fluorescence change F(t)) was 5.9e+06 ± 300000 M⁻¹ s⁻¹. For the same compound, the kon (AV-BcO, 20 °C, 520 nM, read-out: kon by fluorescence change F(t), right block without spread) was 5.9e+06 M⁻¹ s⁻¹, the kon by corrected fluorescence anisotropy rF(t) (AV-BcO, 20 °C, 1040 nM) was 6.1e+06 ± 100000 M⁻¹ s⁻¹ and the kon (AV-BcO, 20 °C, 1040 nM, read-out: kon by corrected fluorescence anisotropy rF(t)) was 6.1e+06 M⁻¹ s⁻¹. The kon (AV-BcO, 20 °C, 1040 nM, read-out: kon by fluorescence change F(t)) was 6e+06 ± 100000 M⁻¹ s⁻¹, the kon (AV-BcO, 20 °C, 1040 nM, read-out: kon by fluorescence change F(t), right block without spread) was 6e+06 M⁻¹ s⁻¹ and the kon (AV-BcO, 20 °C, average of F(t) and rF(t) at 260, 520, 1040 nM, read-out: kon, Average) was 5.9e+06 M⁻¹ s⁻¹. The kon (AV-BcO, 25 °C, 260 nM, read-out: kon by corrected fluorescence anisotropy rF(t)) was 9.5e+06 M⁻¹ s⁻¹, the kon (AV-BcO, 25 °C, 260 nM, read-out: kon by fluorescence change F(t)) was 9.5e+06 ± 100000 M⁻¹ s⁻¹ and the kon (AV-BcO, 25 °C, 260 nM, read-out: kon by fluorescence change F(t), right block without spread) was 9.5e+06 M⁻¹ s⁻¹. For the same compound, the kon (AV-BcO, 25 °C, 520 nM, read-out: kon by corrected fluorescence anisotropy rF(t)) was 9.5e+06 M⁻¹ s⁻¹, the kon (AV-BcO, 25 °C, 520 nM, read-out: kon by fluorescence change F(t)) was 9.5e+06 ± 300000 M⁻¹ s⁻¹ and the kon (AV-BcO, 25 °C, 520 nM, read-out: kon by fluorescence change F(t), right block without spread) was 9.5e+06 M⁻¹ s⁻¹. For the same compound, the kon by corrected fluorescence anisotropy rF(t) (AV-BcO, 25 °C, 1040 nM) was 9.4e+06 ± 200000 M⁻¹ s⁻¹, the kon (AV-BcO, 25 °C, 1040 nM, read-out: kon by corrected fluorescence anisotropy rF(t)) was 9.4e+06 M⁻¹ s⁻¹ and the kon (AV-BcO, 25 °C, 1040 nM, read-out: kon by fluorescence change F(t)) was 9.7e+06 ± 300000 M⁻¹ s⁻¹. For the same compound, the kon (AV-BcO, 25 °C, 1040 nM, read-out: kon by fluorescence change F(t), right block without spread) was 9.7e+06 M⁻¹ s⁻¹, the kon (AV-BcO, 25 °C, average of F(t) and rF(t) at 260, 520, 1040 nM, read-out: kon, Average) was 9.5e+06 M⁻¹ s⁻¹ and the “Ea^Forward” value (AV, pH 8) was 14.4 ± 0.6 kcal/mol. The “ln(k)” value (AV, pH8, 10 (283.15 K)) was 14.8, the “k(average)” value (AV, pH8, 10 (283.15 K)) was 2.60E+06 and the kon (AV, pH8, 10 (283.15 K), k (scaled)) was 2.6e+06 M⁻¹ s⁻¹. For the same compound, the “ln(k)” value (AV, pH8, 15 (288.15 K)) was 15.2, the “k(average)” value (AV, pH8, 15 (288.15 K)) was 3.90E+06 and the kon (AV, pH8, 15 (288.15 K), k (scaled)) was 3.9e+06 M⁻¹ s⁻¹. For the same compound, the “ln(k)” value (AV, pH8, 20 (293.15 K)) was 15.6, the “k(average)” value (AV, pH8, 20 (293.15 K)) was 5.90E+06 and the kon (AV, pH8, 20 (293.15 K), k (scaled)) was 5.9e+06 M⁻¹ s⁻¹. For the same compound, the “ln(k)” value (AV, pH8, 25 (298.15 K)) was 16.1, the “k(average)” value (AV, pH8, 25 (298.15 K)) was 9.50E+06 and the kon (AV, pH8, 25 (298.15 K), k (scaled)) was 9.5e+06 M⁻¹ s⁻¹. For the same compound, the “ΔG^ǂ” value (AV, pH 8, forward) was 4.6 ± 0.3 kcal/mol, the “ΔS^ǂ” value (AV, pH 8, forward) was 33.0 ± 2.5 cal/°K·mol and the “Ea^Forward” value (AV, pH 9) was 13.9 ± 0.7 kcal/mol. The “ln(k)” value (AV, pH 9, 10 (283.15 K)) was 14.7, the “k(average)” value (AV, pH 9, 10 (283.15 K)) was 2.31E+06 and the kon (AV, pH 9, 10 (283.15 K), k (scaled)) was 2.3e+06 M⁻¹ s⁻¹. For the same compound, the “ln(k)” value (AV, pH 9, 15 (288.15 K)) was 15.0 and the “k(average)” value (AV, pH 9, 15 (288.15 K)) was 3.36E+06.
